Experimental data as given in ChEMBL document CHEMBL1201862, “PubChem BioAssay data set” (2004).
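Five compound concentrations were applied to cells in 96-well plates for 48 hours; endpoints were derived by simple linear interpolation of the resulting dose-response curve. The concentration for 50% growth inhibition is given as GI50.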 Active and inactive are the calls of the source. Rule as the data show it: active = GI50 up to about 1.1 µM and inactive = higher.

Tests used:
Experiment in all cases: NCI tumour cell line growth inhibition, 48 h
[1] = system: MDA-MB-435
[2] = system: MDA-MB-231
[3] = system: MOLT-4
[4] = system: OVCAR-5
[5] = system: 786-0
[6] = system: M14
[7] = system: K562
[8] = system: PC-3
[9] = system: SNB-75
[10] = system: LOX IMVI
[11] = system: HOP-92
[12] = system: EKVX
[13] = system: TK-10
[14] = system: A498
[15] = system: SN12C
[16] = system: HCT-15
[17] = system: SK-MEL-5
[18] = system: OVCAR-8
[19] = system: SR
[20] = system: NCI-H460

SMILES	GI50 [1]	GI50 [2]	GI50 [3]	GI50 [4]	GI50 [5]	GI50 [6]	GI50 [7]	GI50 [8]	GI50 [9]	GI50 [10]	GI50 [11]	GI50 [12]	GI50 [13]	GI50 [14]	GI50 [15]	GI50 [16] [µM]	GI50 [17]	GI50 [18]	GI50 [19]	GI50 [20]
O=C(NNCc1ccccc1O)c1ccccc1O	3.06 µM (inactive)	> 100 µM (inactive)	1.75 µM (inactive)	3.59 µM (inactive)	11 µM (inactive)	9.16 µM (inactive)	3.3 µM (inactive)	24.9 µM (inactive)	21.9 µM (inactive)	3.09 µM (inactive)	33 µM (inactive)	5.89 µM (inactive)	31.4 µM (inactive)	31.4 µM (inactive)	4.03 µM (inactive)	1.19	3.06 µM (inactive)	14.4 µM (inactive)	–	–
C/C(=N\NC(=O)c1ccc(Cl)cc1)c1nc2cccnc2[nH]1	25.2 µM (inactive)	36.8 µM (inactive)	14.3 µM (inactive)	> 100 µM (inactive)	16 µM (inactive)	36.2 µM (inactive)	42.6 µM (inactive)	> 100 µM (inactive)	3.26 µM (inactive)	12.2 µM (inactive)	–	43 µM (inactive)	15.2 µM (inactive)	43.8 µM (inactive)	27.6 µM (inactive)	11.7	15.8 µM (inactive)	15.5 µM (inactive)	18 µM (inactive)	14.7 µM (inactive)
Cn1c2ccccc2c(=O)c2c(O)cc3c(c21)C=CC1(CCCCC1)O3	> 10 µM (inactive)	> 10 µM (inactive)	> 10 µM (inactive)	7.18 µM (inactive)	9.95 µM (inactive)	> 10 µM (inactive)	4.5 µM (inactive)	> 10 µM (inactive)	> 10 µM (inactive)	> 10 µM (inactive)	> 10 µM (inactive)	8.41 µM (inactive)	> 10 µM (inactive)	> 10 µM (inactive)	> 10 µM (inactive)	> 10	> 10 µM (inactive)	> 10 µM (inactive)	–	> 10 µM (inactive)
COc1ccc(C2CC(c3ccccc3)=Nc3c(-c4ccccc4)nnn32)cc1 (configuration not stated)	77.8 µM (inactive)	85.1 µM (inactive)	> 100 µM (inactive)	> 100 µM (inactive)	> 100 µM (inactive)	> 100 µM (inactive)	> 100 µM (inactive)	72.6 µM (inactive)	–	> 100 µM (inactive)	–	–	–	> 100 µM (inactive)	> 100 µM (inactive)	9.06	9.27 µM (inactive)	37.3 µM (inactive)	23.3 µM (inactive)	> 100 µM (inactive)
COc1cc2oc(-c3ccc4c(c3)OCO4)c(OC)c(=O)c2c(O)c1OC	26.9 µM (inactive)	45.4 µM (inactive)	> 50 µM (inactive)	> 50 µM (inactive)	> 50 µM (inactive)	> 50 µM (inactive)	27.9 µM (inactive)	> 50 µM (inactive)	28.6 µM (inactive)	> 50 µM (inactive)	22.8 µM (inactive)	> 50 µM (inactive)	> 50 µM (inactive)	> 50 µM (inactive)	> 50 µM (inactive)	> 50	> 50 µM (inactive)	> 50 µM (inactive)	–	> 50 µM (inactive)
c1cc2cc(c1)CN1CCNCCN(CCNCC1)Cc1cccc(c1)CN1CCNCCN(CCNCC1)C2	> 100 µM (inactive)	> 100 µM (inactive)	> 100 µM (inactive)	> 100 µM (inactive)	> 100 µM (inactive)	> 100 µM (inactive)	> 100 µM (inactive)	> 100 µM (inactive)	> 100 µM (inactive)	> 100 µM (inactive)	–	> 100 µM (inactive)	> 100 µM (inactive)	> 100 µM (inactive)	> 100 µM (inactive)	> 100	> 100 µM (inactive)	> 100 µM (inactive)	78 µM (inactive)	> 100 µM (inactive)
O=C(NC(C(F)(F)F)(C(F)(F)F)P(=O)(c1ccccc1)c1ccccc1)C(C(F)(F)F)C(F)(F)F	18.7 µM (inactive)	24.2 µM (inactive)	26.7 µM (inactive)	34.2 µM (inactive)	18.9 µM (inactive)	17.1 µM (inactive)	33.6 µM (inactive)	27.8 µM (inactive)	20.8 µM (inactive)	23.2 µM (inactive)	–	> 100 µM (inactive)	37.2 µM (inactive)	> 100 µM (inactive)	27.9 µM (inactive)	30	17.8 µM (inactive)	29.3 µM (inactive)	–	42.3 µM (inactive)
OC1CCCN(C2(c3cccs3)CCCCC2)C1 (configuration not stated)	> 100 µM (inactive)	> 100 µM (inactive)	> 100 µM (inactive)	> 100 µM (inactive)	> 100 µM (inactive)	–	> 100 µM (inactive)	> 100 µM (inactive)	> 100 µM (inactive)	> 100 µM (inactive)	> 100 µM (inactive)	> 100 µM (inactive)	> 100 µM (inactive)	> 100 µM (inactive)	> 100 µM (inactive)	> 100	> 100 µM (inactive)	> 100 µM (inactive)	–	> 100 µM (inactive)
Cn1c(=O)n(-c2c3ccccc3c(Cl)c3ccccc23)n(C(C)(C)C)c1=O	> 100 µM (inactive)	97.1 µM (inactive)	> 100 µM (inactive)	> 100 µM (inactive)	48.8 µM (inactive)	> 100 µM (inactive)	> 100 µM (inactive)	> 100 µM (inactive)	12.1 µM (inactive)	> 100 µM (inactive)	57.7 µM (inactive)	> 100 µM (inactive)	> 100 µM (inactive)	> 100 µM (inactive)	> 100 µM (inactive)	> 100	> 100 µM (inactive)	49.5 µM (inactive)	–	> 100 µM (inactive)
OC(C1CCCC1=N/N=C1/CCCC1C(O)(C(F)(F)Cl)C(F)(F)Cl)(C(F)(F)Cl)C(F)(F)Cl (configuration not stated)	> 10 µM (inactive)	> 10 µM (inactive)	> 10 µM (inactive)	> 10 µM (inactive)	> 10 µM (inactive)	> 10 µM (inactive)	> 10 µM (inactive)	> 10 µM (inactive)	> 10 µM (inactive)	> 10 µM (inactive)	> 10 µM (inactive)	> 10 µM (inactive)	> 10 µM (inactive)	> 10 µM (inactive)	> 10 µM (inactive)	> 10	> 10 µM (inactive)	> 10 µM (inactive)	–	> 10 µM (inactive)
N#Cc1ccc(Oc2nc3ccccc3nc2-c2ccccc2)cc1	> 100 µM (inactive)	> 100 µM (inactive)	> 100 µM (inactive)	> 100 µM (inactive)	> 100 µM (inactive)	–	> 100 µM (inactive)	> 100 µM (inactive)	–	> 100 µM (inactive)	> 100 µM (inactive)	> 100 µM (inactive)	> 100 µM (inactive)	> 100 µM (inactive)	> 100 µM (inactive)	> 100	> 100 µM (inactive)	–	–	> 100 µM (inactive)
CC(=O)O[C@@H]1C[C@@]23C[C@@]24CC[C@H](OC2OCC(O)C(O)C2O)C(C)(C)[C@@H]4CC=C3[C@]2(C)C[C@@H]3OC4(C[C@@H](C)[C@@H]3[C@@]12C)OC(O)[C@@]1(C)O[C@@H]41 (some centres not stated)	32.4 µM (inactive)	21.1 µM (inactive)	–	47.5 µM (inactive)	25.2 µM (inactive)	47.2 µM (inactive)	23.8 µM (inactive)	22.9 µM (inactive)	25 µM (inactive)	23.4 µM (inactive)	54.3 µM (inactive)	33.4 µM (inactive)	36 µM (inactive)	32.1 µM (inactive)	31.5 µM (inactive)	31.6	19.7 µM (inactive)	41.7 µM (inactive)	–	25.3 µM (inactive)
CCC(C#N)NCc1ccc(CNC(C#N)CC)cc1 (configuration not stated)	> 100 µM (inactive)	> 100 µM (inactive)	> 100 µM (inactive)	> 100 µM (inactive)	> 100 µM (inactive)	> 100 µM (inactive)	> 100 µM (inactive)	> 100 µM (inactive)	–	> 100 µM (inactive)	> 100 µM (inactive)	> 100 µM (inactive)	> 100 µM (inactive)	> 100 µM (inactive)	> 100 µM (inactive)	> 100	> 100 µM (inactive)	> 100 µM (inactive)	–	> 100 µM (inactive)
N#Cc1nsnc1-c1nc(-c2nsnc2C#N)nc(-c2nsnc2C#N)n1	> 100 µM (inactive)	> 100 µM (inactive)	> 100 µM (inactive)	> 100 µM (inactive)	61.9 µM (inactive)	–	> 100 µM (inactive)	> 100 µM (inactive)	> 100 µM (inactive)	> 100 µM (inactive)	–	> 100 µM (inactive)	71.4 µM (inactive)	> 100 µM (inactive)	> 100 µM (inactive)	> 100	> 100 µM (inactive)	> 100 µM (inactive)	> 100 µM (inactive)	> 100 µM (inactive)
Clc1cc2nnn(C3CCCCO3)c2cc1Cl (configuration not stated)	> 100 µM (inactive)	24.5 µM (inactive)	75.7 µM (inactive)	> 100 µM (inactive)	> 100 µM (inactive)	> 100 µM (inactive)	> 100 µM (inactive)	58.1 µM (inactive)	34.4 µM (inactive)	–	–	20.7 µM (inactive)	> 100 µM (inactive)	36.1 µM (inactive)	> 100 µM (inactive)	96.6	38.7 µM (inactive)	> 100 µM (inactive)	51.6 µM (inactive)	88.9 µM (inactive)
